One data set deals with 293T-ACE2^+ cells. As to the kind of experiment: Cytotoxicity by CCK-8 in 293T-ACE2^+ cells. The data set is classed as cell-based, human. As to conditions: 1 nM to 100 μM, 48 h; FIGS. 9A-9C, 10A-10C. On the procedure:
; • (3) The cells were washed once with PBS after discarding supernatant after culturing, 120 μL of cell counting kit-8 (CCK-8) working solution (CCK-8 working solution is obtained by mixing CCK8 stock solution and complete medium in a volume ratio of 1:10, CCK8 stock solution was purchased from Dojindo Molecular Technologies) was added to each well. After mixing, the system was incubated at 37° C. for 3 h, then the absorbance values at 450 nm and 630 nm (reference wavelength) were detected to calculate the cell viability.

Data set [1] has as its target spike protein of the SARS-CoV-2 pseudovirus (PSV) (SARS-CoV-2), P0DTC2. As to the kind of experiment: cell-based or functional assay.

Ends that are not written are not given here. Peptide text beside a SMILES is read from it.

In the case of `CC(C)C[C@H](NC(=O)[C@@H](NC(=O)[C@H](CO)NC(=O)[C@H](CO)NC(=O)[C@H](CC(=O)O)NC(=O)[C@H](Cc1ccccc1)NC(=O)[C@@H](NC(=O)[C@H](CC(=O)O)NC(=O)[C@H](CCCNC(=N)N)NC(=O)[C@@H]1CCCN1C(=O)[C@H](Cc1ccc(O)cc1)NC(=O)[C@H](Cc1ccc(O)cc1)NC(=O)[C@@H](NC(=O)CNC(=O)[C@H](CC(=O)O)NC(=O)CNC(=O)[C@@H]1CCCN1C(=O)[C@@H]1CCCN1C(=O)[C@@H]1CCCN1C(=O)[C@@H]1CCCN1C(=O)[C@H](CS)NC(=O)[C@@H](N)CS)C(C)C)C(C)C)C(C)C)C(=O)N[C@@H](CC(=O)O)C(=O)N[C@@H](CO)C(=O)N[C@H](C(=O)N[C@@H](CCC(N)=O)C(=O)N[C@@H](CCCNC(=N)N)C(=O)O)[C@@H](C)O` [KVp-N1] (H-CCPPPPGDGVYYPRDVFDSSVLDSTQR-OH), the “effect on 293T-ACE2^+ cells viability (CCK-8)” value (“effect” below) with 293T-ACE2^+ cells is on record as “not significant”.

As to `CC[C@H](C)[C@H](NC(=O)[C@H](CCCNC(=N)N)NC(=O)[C@H](CC(=O)O)NC(=O)[C@H](CCCNC(=N)N)NC(=O)[C@H](Cc1ccccc1)NC(=O)[C@@H]1CCCN1C(=O)[C@H](CC(=O)O)NC(=O)[C@H](CC(C)C)NC(=O)[C@H](CC(N)=O)NC(=O)[C@H](CO)NC(=O)[C@H](CC(=O)O)NC(=O)[C@H](CC(=O)O)NC(=O)[C@H](Cc1ccccc1)NC(=O)[C@H](CC(C)C)NC(=O)[C@H](CC(=O)O)NC(=O)CNC(=O)[C@@H]1CCCN1C(=O)[C@@H]1CCCN1C(=O)[C@@H]1CCCN1C(=O)[C@@H]1CCCN1C(=O)[C@H](CS)NC(=O)[C@@H](N)CS)C(=O)N[C@@H](CO)C(=O)N[C@H](C(=O)N[C@@H](CCCNC(=N)N)C(=O)N[C@@H](CCCNC(=N)N)C(=O)O)[C@@H](C)O` [KVp-R14] (H-CCPPPPGDLFDDSNLDPFRDRISTRR-OH), in the data set with 293T-ACE2^+ cells, the “effect” value was “not significant”.

For the molecule GDGVYYPRDVFDSSVLDSTQR [KVp-N1N], the “effect” value with 293T-ACE2^+ cells is reported as “not significant”.

With GDLFDDSNLDPFRDRISTRR [KVp-R14N], the “effect” value in the data set on 293T-ACE2^+ cells is listed as “not significant”.

CCPPPPGDGVYYPRDVFDSSVLDSTQR (modifications not checked) [polypeptide KVp-N1]: the neutralization ability to SARS-CoV-2 pseudovirus in data set [1] was 50%.

For the molecule CCPPPPGDLFDDSNLDPFRDRISTRR (modifications not checked) [polypeptide KVp-R14], the neutralization ability to SARS-CoV-2 pseudovirus in data set [1] is 50%.

Source of the values: patent publication US20260234196A1 (priority 2021, published 2026).
